From PMC2584942, “Phase I dose escalation study of telatinib (BAY 57-9352) in patients with advanced solid tumours” (British Journal of Cancer, 2008)

Key:
[1] = test system: human umbilical vein endothelial cells; parameters: method as in printed; conditions: human umbilical vein endothelial cells in vitro; background statement, ref not given; cited from earlier work
[2] = parameters: method as in printed; conditions: in vitro studies; background statement, ref not given; cited from earlier work
sVEGFR-2 = experiment: Plasma sVEGFR-2 concentration (ELISA); assay type: in vivo, human; conditions: over the course of the study
Protocol: (§1) The effects of telatinib treatment on the plasma concentrations of sVEGFR-2, VEGF and bFGF were determined from blood samples taken at baseline, on day 14 of cycles 1, 2, 4, 6, etc. and at the final visit. Samples were analysed using the relevant quantitative enzyme-linked immunosorbent assay (ELISA) (R&D Systems Europe, Oxford, UK) according to the manufacturer's instructions. DCE-MRI was performed at baseline, on day 2 (only cycle 1), and on day 14 of cycles 1–3 to assess tumour blood flow/tumour vessel permeability in a subgroup of patients ([Morgan et al, 2003]).
(§2) To assess the biological activity of telatinib, plasma concentration analyses for the angiogenic markers VEGF, sVEGFR-2, bFGF, PDGF and […] were performed at baseline and during the course of the study. Furthermore, DCE-MRI measurements were done at baseline, on days 2 and 14 of cycle 1 and on day 14 of cycles 2 and 3. Evaluable DCE-MRI results were available for a subgroup of patients treated at dose levels of 300 mg BID or higher.

bFGF = experiment: Plasma bFGF concentration (ELISA); assay type: in vivo, human; conditions: after 14 days of multiple dosing
Protocol: as §1, §2

VEGFR-2 = test system: VEGFR-2; parameters: method as in printed; conditions: biochemical assay; background statement, ref not given; cited from earlier work
major human CYP isoforms = test system: major human CYP isoforms; parameters: method as in printed; conditions: at therapeutically relevant concentrations; background statement, ref not given; cited from earlier work
[3] = test system: H460 non-small cell lung carcinoma; parameters: method as in printed; conditions: H460 non-small cell lung carcinoma model; background statement, ref not given; cited from earlier work
[4] = test system: VEGFR-2 autophosphorylation; parameters: method as in printed; conditions: whole-cell assay in vitro; background statement, ref not given; cited from earlier work
VEGF = experiment: Plasma VEGF concentration (ELISA); assay type: in vivo, human
Protocol: […] Samples were analysed using the relevant quantitative enzyme-linked immunosorbent assay (ELISA) (R&D Systems Europe, Oxford, UK) according to the manufacturer's instructions. DCE-MRI was performed at baseline, on day 2 (only cycle 1), and on day 14 of cycles 1–3 to assess tumour blood flow/tumour vessel permeability in a subgroup of patients ([Morgan et al, 2003]).
as §2

IL-8 = experiment: Plasma IL-8 level; assay type: in vivo, human; conditions: after 14 days of multiple dosing
Protocol: The relative changes between cycle 1, day 14 and baseline were calculated for VEGF, sVEGFR-2, bFGF, IL-8, tumour blood flow and tumour vessel permeability as measured by DCE-MRI and diastolic blood pressure (Figure 2C). […] The changes in VEGF and sVEGFR-2 plasma levels, the decrease in tumour blood flow and permeability and the increase in diastolic blood pressure were not predictive for the clinical outcome; there were no statistically significant differences in the change of biomarkers for patients who reached a progression-free survival of >3 months compared with those who stopped treatment during the first 3 months due to progressive disease.

[5] = test system: MDA-MB-231 breast carcinoma; parameters: method as in printed; conditions: MDA-MB-231 breast carcinoma model; background statement, ref not given; cited from earlier work
DLD-1 colon carcinoma = test system: DLD-1 colon carcinoma; parameters: method as in printed; conditions: DLD-1 colon carcinoma model; background statement, ref not given; cited from earlier work
[6] = test system: tumour blood flow/tumour vessel permeability; experiment: DCE-MRI of tumour blood flow/tumour vessel permeability; assay type: in vivo, human
Protocol: as §1, §2

[7] = test system: human aortic smooth muscle cells; parameters: method as in printed; conditions: background statement, ref not given; cited from earlier work
[8] = test system: p-glycoprotein transporter; parameters: method as in printed; conditions: in vitro studies; background statement, ref not given; cited from earlier work
[9] = test system: cytochrome P450 (CYP) isoforms; parameters: method as in printed; conditions: background statement, ref not given, cited from earlier work

CNC(=O)c1cc(COc2nnc(Nc3ccc(Cl)cc3)c3ccoc23)ccn1 [telatinib]
VEGF-dependent proliferation [1]: inhibited | drug–drug interactions due to displacement from plasma protein-binding sites [2]: unlikely | sVEGFR-2 levels (sVEGFR-2): dose-dependent decrease | bFGF plasma levels (bFGF): no relevant changes | VEGFR-2 tyrosine kinase activity (VEGFR-2): potent inhibitor | inhibitory and inductive potential on major human CYP isoforms (major human CYP isoforms): neither an inhibitory nor an inductive potential | tumour growth in vivo [3]: potent, dose-dependent reduction in tumour growth | VEGFR-2 autophosphorylation [4]: inhibited | VEGF levels (VEGF; day 21 compared to baseline): increased | VEGF plasma levels (VEGF; within 8 h after the first telatinib administration): dose-dependent short-term increase | IL-8 plasma levels (IL-8): no relevant changes | tumour growth in vivo [5]: potent, dose-dependent reduction in tumour growth | tumour growth in vivo (DLD-1 colon carcinoma): potent, dose-dependent reduction in tumour growth | iAUC60 for the gadolinium curve ([6]; DCE-MRI, dose levels of 300 mg BID or higher): decrease | telatinib AUC0−12 at which substantial decreases in the gadolinium iAUC60 ratio were observed ([6]; day 14 of cycle 1): about 4 mg h l^−1 | total daily dose at which substantial decreases in the gadolinium iAUC60 ratio were observed ([6]; day 14 of cycle 1): ≥ 600 mg | PDGF-stimulated growth [7]: inhibited | drug–drug interactions due to modulation of p-glycoprotein transporter activity [8]: unlikely | main target of metabolic degradation [9]: N-methyl group | risk of drug–drug interactions ([9]; human microsomes, hepatocytes or single CYP isoforms): no or only a very low risk of drug–drug interactions | biotransformation by CYP isoforms ([9]; in vitro): metabolised by various CYP isoforms
